Experimental data: ChEMBL document CHEMBL4507311, “Data for DCP probe A-1155463” (2021)

Columns and labels:
[1] = target: Homeodomain-interacting protein kinase 1 (Homo sapiens) (UniProt Q86Z02); conditions: Compound concentration 1000.0 nM
[2] = target: BDNF/NT-3 growth factors receptor (Homo sapiens) (UniProt Q16620); conditions: Compound concentration 1000.0 nM
[3] = target: Cyclin-dependent kinase 11A (Homo sapiens) (UniProt Q9UQ88); conditions: Compound concentration 1000.0 nM
[4] = target: Cytoplasmic tyrosine-protein kinase BMX (Homo sapiens) (UniProt P51813); conditions: Compound concentration 1000.0 nM
[5] = target: Serine/threonine-protein kinase N2 (Homo sapiens) (UniProt Q16513); conditions: Compound concentration 1000.0 nM
[6] = target: Serine/threonine-protein kinase pim-1 (Homo sapiens) (UniProt P11309); conditions: Compound concentration 1000.0 nM
[7] = target: SRSF protein kinase 1 (Homo sapiens) (UniProt Q96SB4); conditions: Compound concentration 1000.0 nM
[8] = target: Inhibitor of nuclear factor kappa-B kinase subunit beta (Homo sapiens) (UniProt O14920); conditions: Compound concentration 1000.0 nM
[9] = target: Serine/threonine-protein kinase pim-3 (Homo sapiens) (UniProt Q86V86); conditions: Compound concentration 1000.0 nM
[10] = target: Myosin light chain kinase, smooth muscle (Homo sapiens) (UniProt Q15746); conditions: Compound concentration 1000.0 nM
[11] = target: Dual specificity mitogen-activated protein kinase kinase 3 (Homo sapiens) (UniProt P46734); conditions: Compound concentration 1000.0 nM
[12] = target: Tyrosine-protein kinase Blk (Homo sapiens) (UniProt P51451); conditions: Compound concentration 1000.0 nM
[13] = target: Protein kinase C epsilon type (Homo sapiens) (UniProt Q02156); conditions: Compound concentration 1000.0 nM
[14] = target: Activin receptor type-2B (Homo sapiens) (UniProt Q13705); conditions: Compound concentration 1000.0 nM
Activin receptor type-2B (Homo sapiens), sequence (Q13705 whole entry): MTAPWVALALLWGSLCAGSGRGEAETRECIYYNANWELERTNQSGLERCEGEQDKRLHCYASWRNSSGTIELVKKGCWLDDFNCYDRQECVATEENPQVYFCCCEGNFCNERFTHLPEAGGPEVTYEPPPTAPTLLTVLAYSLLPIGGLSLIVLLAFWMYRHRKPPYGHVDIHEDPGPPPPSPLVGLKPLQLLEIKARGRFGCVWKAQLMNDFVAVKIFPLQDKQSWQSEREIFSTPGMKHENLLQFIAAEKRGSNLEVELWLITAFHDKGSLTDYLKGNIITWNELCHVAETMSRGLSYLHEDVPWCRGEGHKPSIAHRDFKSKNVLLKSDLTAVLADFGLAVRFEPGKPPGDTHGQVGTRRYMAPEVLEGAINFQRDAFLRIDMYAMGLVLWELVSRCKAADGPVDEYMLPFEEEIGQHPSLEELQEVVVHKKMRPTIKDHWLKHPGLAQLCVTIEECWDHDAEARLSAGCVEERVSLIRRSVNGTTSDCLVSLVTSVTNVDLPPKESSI

[15] = target: Tyrosine-protein kinase receptor Tie-1 (Homo sapiens) (UniProt P35590); conditions: Compound concentration 1000.0 nM
[16] = target: Leukocyte tyrosine kinase receptor (Homo sapiens) (UniProt P29376); conditions: Compound concentration 1000.0 nM
[17] = target: Serine/threonine-protein kinase 38 (Homo sapiens) (UniProt Q15208); conditions: Compound concentration 1000.0 nM
[18] = target: Mitogen-activated protein kinase kinase kinase 20 (Homo sapiens) (UniProt Q9NYL2); conditions: Compound concentration 1000.0 nM
Mitogen-activated protein kinase kinase kinase 20 (Homo sapiens), sequence (Q9NYL2 2-800 limits assumed): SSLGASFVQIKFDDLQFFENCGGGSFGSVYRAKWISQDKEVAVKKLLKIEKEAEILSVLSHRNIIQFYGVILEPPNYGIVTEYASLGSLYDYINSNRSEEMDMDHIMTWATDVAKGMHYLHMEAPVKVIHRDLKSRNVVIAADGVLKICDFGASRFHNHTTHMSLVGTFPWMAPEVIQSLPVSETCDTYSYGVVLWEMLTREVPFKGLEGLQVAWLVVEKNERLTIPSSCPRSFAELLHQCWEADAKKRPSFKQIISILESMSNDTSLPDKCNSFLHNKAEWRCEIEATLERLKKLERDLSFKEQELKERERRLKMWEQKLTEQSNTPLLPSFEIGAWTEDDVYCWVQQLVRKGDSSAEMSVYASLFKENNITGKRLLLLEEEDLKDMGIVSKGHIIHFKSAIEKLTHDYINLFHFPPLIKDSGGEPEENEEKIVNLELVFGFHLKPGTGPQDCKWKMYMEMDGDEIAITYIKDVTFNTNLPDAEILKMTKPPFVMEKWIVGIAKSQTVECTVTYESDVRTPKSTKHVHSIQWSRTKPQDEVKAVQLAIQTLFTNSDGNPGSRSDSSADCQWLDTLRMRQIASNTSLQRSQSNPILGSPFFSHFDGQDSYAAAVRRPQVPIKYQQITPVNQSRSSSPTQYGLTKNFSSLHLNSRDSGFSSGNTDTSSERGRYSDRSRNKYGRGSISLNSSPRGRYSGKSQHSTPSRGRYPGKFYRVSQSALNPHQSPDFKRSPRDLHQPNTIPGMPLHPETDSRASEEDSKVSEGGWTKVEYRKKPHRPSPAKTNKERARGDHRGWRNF

[19] = target: Calcium/calmodulin-dependent protein kinase kinase 2 (Homo sapiens) (UniProt Q96RR4); conditions: Compound concentration 1000.0 nM
[20] = target: Homeodomain-interacting protein kinase 2 (Homo sapiens) (UniProt Q9H2X6); conditions: Compound concentration 1000.0 nM
[21] = tested on: Phosphatidylinositol 4,5-bisphosphate 3-kinase catalytic subunit alpha isoform (Homo sapiens), P42336 [E542K]; conditions: Compound concentration 1000.0 nM
[22] = target: Calcium/calmodulin-dependent protein kinase type II subunit delta (Homo sapiens) (UniProt Q13557); conditions: Compound concentration 1000.0 nM
[23] = target: Serine/threonine-protein kinase RIO1 (Homo sapiens) (UniProt Q9BRS2); conditions: Compound concentration 1000.0 nM
[24] = target: Beta-2 adrenergic receptor (Homo sapiens) (UniProt P07550); conditions: Compound concentration 10.0 uM
[25] = target: Sigma non-opioid intracellular receptor 1 (Homo sapiens, UniProt Q99720); experiment: GPCRScan assay: inhibition of Sigma 1; design: radioligand conc. used [nm] 4.0 – 5.0, parental cells HEKT
[26] = target: Homeodomain-interacting protein kinase 4 (Homo sapiens) (UniProt Q8NE63); conditions: Compound concentration 1000.0 nM
Homeodomain-interacting protein kinase 4 (Homo sapiens), sequence (Q8NE63 whole entry): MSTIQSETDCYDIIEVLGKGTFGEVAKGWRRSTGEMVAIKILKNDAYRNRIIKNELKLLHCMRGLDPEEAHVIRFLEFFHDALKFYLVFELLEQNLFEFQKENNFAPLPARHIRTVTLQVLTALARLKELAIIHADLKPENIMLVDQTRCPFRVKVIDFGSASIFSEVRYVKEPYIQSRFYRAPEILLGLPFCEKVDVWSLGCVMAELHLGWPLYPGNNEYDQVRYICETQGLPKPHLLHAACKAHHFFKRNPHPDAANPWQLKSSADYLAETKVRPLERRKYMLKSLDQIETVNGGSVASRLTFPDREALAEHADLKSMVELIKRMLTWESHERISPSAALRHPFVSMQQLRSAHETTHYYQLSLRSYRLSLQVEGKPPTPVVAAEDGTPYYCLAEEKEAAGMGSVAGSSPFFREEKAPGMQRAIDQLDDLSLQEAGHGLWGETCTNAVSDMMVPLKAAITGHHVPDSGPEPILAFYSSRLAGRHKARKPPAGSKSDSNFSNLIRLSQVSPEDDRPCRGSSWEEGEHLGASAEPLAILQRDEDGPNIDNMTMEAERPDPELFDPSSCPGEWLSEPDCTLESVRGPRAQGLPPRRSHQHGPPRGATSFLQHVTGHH

[27] = target: Fibroblast growth factor receptor 3 (Homo sapiens) (UniProt P22607); conditions: Compound concentration 1000.0 nM
[28] = target: Ephrin type-B receptor 3 (Homo sapiens) (UniProt P54753); conditions: Compound concentration 1000.0 nM
[29] = target: Cyclin-dependent kinase 16 (Homo sapiens) (UniProt Q00536); conditions: Compound concentration 1000.0 nM
[30] = target: Mitogen-activated protein kinase kinase kinase 4 (Homo sapiens) (UniProt Q9Y6R4); conditions: Compound concentration 1000.0 nM
[31] = target: Tyrosine-protein kinase Lck (Homo sapiens) (UniProt P06239); conditions: Compound concentration 1000.0 nM
[32] = target: Mitogen-activated protein kinase kinase kinase 14 (Homo sapiens) (UniProt Q99558); conditions: Compound concentration 1000.0 nM
[33] = target: Histamine H1 receptor (Homo sapiens) (UniProt P35367); conditions: Compound concentration 10.0 uM
[34] = target: Serine/threonine-protein kinase Chk1 (Homo sapiens) (UniProt O14757); conditions: Compound concentration 1000.0 nM
[35] = target: Serine/threonine-protein kinase 26 (Homo sapiens) (UniProt Q9P289); conditions: Compound concentration 1000.0 nM
[36] = tested on: Hepatocyte growth factor receptor (Homo sapiens), P08581 [Y1235D]; conditions: Compound concentration 1000.0 nM
[37] = target: Phosphatidylinositol 4-phosphate 3-kinase C2 domain-containing subunit beta (Homo sapiens) (UniProt O00750); conditions: Compound concentration 1000.0 nM
[38] = target: Serine/threonine-protein kinase tousled-like 1 (Homo sapiens) (UniProt Q9UKI8); conditions: Compound concentration 1000.0 nM
[39] = target: Muscle, skeletal receptor tyrosine-protein kinase (Homo sapiens) (UniProt O15146); conditions: Compound concentration 1000.0 nM
[40] = target: Serine/threonine-protein kinase B-raf (Homo sapiens) (UniProt P15056); conditions: Compound concentration 1000.0 nM
[41] = target: Cyclin-dependent kinase 18 (Homo sapiens) (UniProt Q07002); conditions: Compound concentration 1000.0 nM
[42] = target: Sigma intracellular receptor 2 (Homo sapiens, UniProt Q5BJF2); conditions: Compound concentration 10.0 uM
[43] = tested on: Tyrosine-protein kinase ABL1 (Homo sapiens), P00519 [T315I]; conditions: Compound concentration 1000.0 nM
[44] = target: 5-hydroxytryptamine receptor 5A (Homo sapiens) (UniProt P47898); conditions: Compound concentration 10.0 uM
5-hydroxytryptamine receptor 5A (Homo sapiens), sequence (P47898 whole entry): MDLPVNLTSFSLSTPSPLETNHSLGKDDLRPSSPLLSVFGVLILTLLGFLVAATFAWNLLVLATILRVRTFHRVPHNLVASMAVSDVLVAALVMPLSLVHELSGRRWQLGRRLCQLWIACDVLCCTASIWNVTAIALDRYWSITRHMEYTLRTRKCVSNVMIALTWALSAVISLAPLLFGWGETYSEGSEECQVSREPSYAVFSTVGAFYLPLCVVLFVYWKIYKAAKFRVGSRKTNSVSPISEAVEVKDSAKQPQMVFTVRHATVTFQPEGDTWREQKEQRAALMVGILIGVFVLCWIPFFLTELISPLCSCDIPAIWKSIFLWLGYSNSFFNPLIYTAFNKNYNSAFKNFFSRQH

[45] = target: Death-associated protein kinase 1 (Homo sapiens) (UniProt P53355); conditions: Compound concentration 1000.0 nM
Death-associated protein kinase 1 (Homo sapiens), sequence (P53355 whole entry, looked up): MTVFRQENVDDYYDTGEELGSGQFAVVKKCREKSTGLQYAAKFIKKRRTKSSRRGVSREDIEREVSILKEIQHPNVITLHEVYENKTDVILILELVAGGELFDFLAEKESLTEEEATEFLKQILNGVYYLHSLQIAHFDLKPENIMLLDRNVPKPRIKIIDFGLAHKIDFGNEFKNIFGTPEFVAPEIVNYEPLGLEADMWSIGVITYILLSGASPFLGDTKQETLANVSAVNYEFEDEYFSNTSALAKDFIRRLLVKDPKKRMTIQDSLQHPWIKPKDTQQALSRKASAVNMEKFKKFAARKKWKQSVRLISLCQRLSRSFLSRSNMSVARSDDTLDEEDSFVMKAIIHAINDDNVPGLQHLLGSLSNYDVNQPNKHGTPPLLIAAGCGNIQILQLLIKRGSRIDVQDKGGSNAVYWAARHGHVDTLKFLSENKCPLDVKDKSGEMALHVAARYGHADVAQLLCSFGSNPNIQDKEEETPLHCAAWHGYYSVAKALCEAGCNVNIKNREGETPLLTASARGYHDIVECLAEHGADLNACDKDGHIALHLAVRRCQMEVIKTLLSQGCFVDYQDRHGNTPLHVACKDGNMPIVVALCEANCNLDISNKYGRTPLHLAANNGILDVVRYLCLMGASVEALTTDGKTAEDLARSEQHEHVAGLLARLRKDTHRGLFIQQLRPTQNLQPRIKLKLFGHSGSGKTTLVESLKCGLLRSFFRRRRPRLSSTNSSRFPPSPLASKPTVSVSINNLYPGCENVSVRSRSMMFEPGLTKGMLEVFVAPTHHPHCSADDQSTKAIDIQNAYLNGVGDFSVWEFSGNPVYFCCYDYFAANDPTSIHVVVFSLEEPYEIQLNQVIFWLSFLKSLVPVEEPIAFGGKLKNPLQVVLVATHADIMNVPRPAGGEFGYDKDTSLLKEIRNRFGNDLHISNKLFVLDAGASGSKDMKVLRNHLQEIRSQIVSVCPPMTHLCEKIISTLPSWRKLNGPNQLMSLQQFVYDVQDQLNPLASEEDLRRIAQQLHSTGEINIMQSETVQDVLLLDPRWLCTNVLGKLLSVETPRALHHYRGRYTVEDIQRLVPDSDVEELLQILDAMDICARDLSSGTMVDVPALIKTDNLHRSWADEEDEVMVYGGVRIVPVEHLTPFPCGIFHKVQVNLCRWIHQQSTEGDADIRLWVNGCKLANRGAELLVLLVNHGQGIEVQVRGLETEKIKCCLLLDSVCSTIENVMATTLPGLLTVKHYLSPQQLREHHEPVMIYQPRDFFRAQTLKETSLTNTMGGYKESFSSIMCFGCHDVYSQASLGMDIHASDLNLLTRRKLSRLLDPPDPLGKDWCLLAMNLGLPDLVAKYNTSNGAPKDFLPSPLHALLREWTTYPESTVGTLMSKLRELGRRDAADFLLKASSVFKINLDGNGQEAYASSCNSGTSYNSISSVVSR

Homeodomain-interacting protein kinase 1 (Homo sapiens), sequence (Q86Z02 whole entry, looked up): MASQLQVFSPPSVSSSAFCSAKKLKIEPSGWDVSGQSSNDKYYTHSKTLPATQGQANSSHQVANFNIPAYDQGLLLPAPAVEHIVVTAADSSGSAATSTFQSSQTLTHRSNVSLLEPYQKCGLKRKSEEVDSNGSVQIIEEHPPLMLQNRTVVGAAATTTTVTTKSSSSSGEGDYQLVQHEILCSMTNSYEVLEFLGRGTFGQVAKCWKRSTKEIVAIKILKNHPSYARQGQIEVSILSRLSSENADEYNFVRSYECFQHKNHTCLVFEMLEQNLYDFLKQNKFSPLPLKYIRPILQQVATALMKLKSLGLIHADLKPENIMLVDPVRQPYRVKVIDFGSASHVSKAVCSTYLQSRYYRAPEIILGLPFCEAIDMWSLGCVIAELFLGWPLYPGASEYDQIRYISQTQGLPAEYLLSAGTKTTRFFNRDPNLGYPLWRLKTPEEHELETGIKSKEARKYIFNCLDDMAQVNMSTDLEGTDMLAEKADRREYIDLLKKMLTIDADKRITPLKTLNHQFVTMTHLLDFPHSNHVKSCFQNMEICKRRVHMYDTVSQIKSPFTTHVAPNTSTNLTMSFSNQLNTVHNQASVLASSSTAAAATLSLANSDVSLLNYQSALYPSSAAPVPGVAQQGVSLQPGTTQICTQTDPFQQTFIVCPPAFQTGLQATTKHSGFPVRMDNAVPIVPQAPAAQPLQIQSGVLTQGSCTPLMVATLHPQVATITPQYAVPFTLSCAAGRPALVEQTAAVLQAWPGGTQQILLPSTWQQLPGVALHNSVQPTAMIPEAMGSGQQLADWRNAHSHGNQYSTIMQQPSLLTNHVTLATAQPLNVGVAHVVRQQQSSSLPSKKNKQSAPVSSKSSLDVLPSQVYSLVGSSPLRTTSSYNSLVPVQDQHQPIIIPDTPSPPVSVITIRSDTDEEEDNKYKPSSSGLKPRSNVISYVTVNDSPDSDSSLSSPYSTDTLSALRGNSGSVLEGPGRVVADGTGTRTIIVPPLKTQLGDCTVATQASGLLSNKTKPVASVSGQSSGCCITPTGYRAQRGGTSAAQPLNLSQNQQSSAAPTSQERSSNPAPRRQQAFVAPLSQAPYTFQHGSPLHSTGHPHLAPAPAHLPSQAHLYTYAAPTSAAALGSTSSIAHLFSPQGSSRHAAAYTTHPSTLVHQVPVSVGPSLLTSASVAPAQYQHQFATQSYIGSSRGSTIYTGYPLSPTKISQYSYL

Compound: CN(C)CC#Cc1ccc(OCCCc2sc(N3CCc4cccc(C(=O)Nc5nc6ccccc6s5)c4C3)nc2C(=O)O)c(F)c1 [A-1155463]
- residual activity [1]: 75%
- residual activity [2]: 100%
- residual activity [3]: 100%
- residual activity [4]: 82%
- residual activity [5]: 100%
- residual activity [6]: 100%
- residual activity [7]: 100%
- residual activity [8]: 72%
- residual activity [9]: 91%
- residual activity [10]: 81%
- residual activity [11]: 100%
- residual activity [12]: 92%
- residual activity [13]: 100%
- residual activity [14]: 100%
- residual activity [15]: 85%
- residual activity [16]: 100%
- residual activity [17]: 76%
- residual activity [18]: 100%
- residual activity [19]: 100%
- residual activity [20]: 100%
- residual activity [21]: 72%
- residual activity [22]: 72%
- residual activity [23]: 91%
- inhibition [24]: 27.1%
- Ki [25]: 136 nM
- residual activity [26]: 100%
- residual activity [27]: 98%
- residual activity [28]: 100%
- residual activity [29]: 100%
- residual activity [30]: 100%
- residual activity [31]: 100%
- residual activity [32]: 100%
- inhibition [33]: 39.8%
- residual activity [34]: 89%
- residual activity [35]: 80%
- residual activity [36]: 95%
- residual activity [37]: 100%
- residual activity [38]: 86%
- residual activity [39]: 84%
- residual activity [40]: 100%
- residual activity [41]: 100%
- inhibition [42]: 83%
- residual activity [43]: 92%
- inhibition [44]: -3.1%
- residual activity [45]: 91%
